Assay [1] concerns CCRF-CEM. Put plainly: Compound tested in Vitro for inhibition of cytopathic activity of HIV-1 on T4 lymphocytes (CEM cells); Inactive. It is filed as functional, cell-based, Homo sapiens.
The test system of assay [2] is CCRF-CEM. As to the kind of experiment: Compound tested in Vitro for inhibition of cytopathic activity of HIV-1 on T4 lymphocytes (CEM cells). It is filed as functional, cell-based. The conditions noted are these: Homo sapiens. Background: Protection from cytopathic effect is a common read-out in antiviral testing.
Assay [3] deals with CCRF-CEM. Put plainly: Compound tested in vitro for inhibition of cytopathic activity of Merck-resistant variant of AZT-sensitive HIV-l (A17) on T4 lymphocytes (CEM cells): IA denotes inactive. The format is functional, cell-based, Homo sapiens.
Assay [4] has as its system CCRF-CEM. As to the kind of experiment: Compound tested in vitro for inhibition of cytopathic activity of AZT-resistant HIV-2 on T4 lymphocytes (CEM cells): IA denotes inactive. The format is functional, cell-based, Homo sapiens.
Assay [5] deals with CCRF-CEM. Put plainly: Compound tested in vitro for inhibition of cytopathic activity of AZT-sensitive HIV-1 on T4 lymphocytes (CEM cells). The format is functional, cell-based. The conditions noted are these: Homo sapiens.
Assay [6] relates to CCRF-CEM. As to the kind of experiment: Compound tested in vitro for inhibition of cytopathic activity of AZT-resistant SIV on T4 lymphocytes (CEM cells): IA denotes inactive. It is filed as functional, cell-based, Homo sapiens.
The subject of assay [7] is CCRF-CEM. Put plainly: Compound tested in vitro for inhibition of cytopathic activity of AZT-resistant HIV-1 on T4 lymphocytes (CEM cells). The format is functional, cell-based. To be noted: Homo sapiens.
Assay [8] deals with CCRF-CEM. Put plainly: Compound tested in vitro for inhibition of cytopathic activity of AZT-sensitive HIV-2 on T4 lymphocytes (CEM cells): IA denotes inactive. It is filed as functional, cell-based, Homo sapiens.
The subject of assay [9] is CCRF-CEM. As to the kind of experiment: Compound tested in vitro for inhibition of cytopathic activity of Merck-resistant variant of AZT-resistant HIV-l (A17) on T4 lymphocytes (CEM cells): IA denotes inactive. It is filed as functional, cell-based, Homo sapiens.
The test system of assay [10] is CCRF-CEM. Put plainly: Compound tested in vitro for inhibition of cytopathic activity of HIV-1 on T4 lymphocytes (CEM cells). The format is functional, cell-based. To be noted: Homo sapiens.
The test system of assay [11] is CCRF-CEM. Put plainly: Compound tested in vitro for inhibition of cytopathic activity of AZT-sensitive SIV on T4 lymphocytes (CEM cells): IA denotes inactive. The format is functional, cell-based, Homo sapiens.

This is an account of results in ChEMBL document CHEMBL1126967, “Synthetic pterocarpans with anti-HIV activity” (Bioorg Med Chem Lett, 1993).

For `COc1cc2c(cc1O)C1COc3ccccc3C1O2` (stereo not given), in assay [1], the EC50 (usually the concentration that produces a half-maximal response) is recorded as “Not Active” and the IC50 (commonly the concentration at which inhibition is half-maximal) is listed as “Not Active”.

For `COC(=O)c1c(O)ccc2c1C1COc3ccccc3C1O2` (stereo not given), in assay [1], the EC50 result is “Not Active” and the IC50 entry is “Not Active”.

With `COc1ccc2c(c1)OCC1c3cc(O)c(OCc4ccc5ccccc5c4)cc3OC21` (stereo not given), in [2], the midpoint of the response, the EC50, lay at 3.35 µM and half-maximal inhibition (IC50) was put at 34.2 µM.

As for `COc1cc2c(c(C)c1O)C1COc3ccccc3C1O2` (stereo not given), in assay [1], the EC50 entry is listed as “Not Active” and the IC50 entry is recorded as “Not Active”.

As for `COC(=O)c1c(O)ccc2c1C1COc3cc(OC)ccc3C1O2` (stereo not given), in [1], the EC50 entry was “Not Active” and the concentration for half-maximal inhibition (IC50) result was “Not Active”.

Turning to `COc1ccc2c(c1)OC1c3ccc(OC)cc3OCC21` (stereo not given), in assay [1], the EC50 entry is recorded as “Not Active” and the IC50 result is “Not Active”.

In the case of `COc1ccc2c(c1)OCC1c3cc(CC=C(C)C)c(OCc4ccccc4)cc3OC21` (stereo not given), in assay [1], the EC50 result is recorded as “Not Active” and the IC50 result is listed as “Not Active”.

On to `COc1ccc2c(c1)OCC1c3cc(OC)c(OCc4ccccc4)cc3OC21` (stereo not given), for which, in assay [2], the EC50 stood at 5.7 µM and it took 69.4 µM to reach half-maximal inhibition (IC50).

In [2], `COc1ccc2c(c1)OCC1c3cc(O)c(OCc4cccc5ccccc45)cc3OC21` (stereo not given) displayed an EC50 of 0.43 µM and an IC50 of 38.5 µM.

On to `COc1ccc2c(c1)OCC1c3cc(O)c(OCC4CCCCC4)cc3OC21` (stereo not given), for which, in [2], the EC50 is 1.46 µM and the 50% inhibitory concentration (IC50) is 22.2 µM.

In the case of `Oc1cc2c(cc1OCc1ccccc1)OC1c3ccccc3OCC21` (stereo not given), in assay [1], the EC50 result is listed as “Not Active” and the concentration for half-maximal inhibition (IC50) result is reported as “Not Active”.

For `COc1ccc2c(c1)OCC1c3ccc(OCc4ccccc4)cc3OC21` (stereo not given), in assay [2], the response was half-maximal at 31.2 µM (EC50) and half-maximal inhibition (IC50) was put at 200 µM.

As to `COc1ccc2c(c1)OCC1c3cc4c(cc3OC21)OCO4` (stereo not given), in [1], the EC50 entry is given as “Not Active” and the IC50 result is “Not Active”.

For `COc1ccc2c(c1)OCC1c3cc(O)c(OCC(C)C)cc3OC21` (stereo not given), in assay [2], the EC50 stood at 2.28 µM and half-maximal inhibition (IC50) required 24.5 µM.

With `COc1ccc2c(c1)OCC1c3cc(O)c(OC)cc3OC21` (stereo not given), in assay [1], the EC50 entry is “Not Active” and the IC50 entry is on record as “Not Active”.

In the case of `COc1ccc2c(c1)OCC1c3cc(O)c(OCc4ccccc4)cc3OC21` (stereo not given), the EC50 result is “Not Active” in [3]; “Not Active” in assay [4]; 3.6 µM in [5]; “Not Active” in assay [6]; 1.3 µM in [7]; “Not Active” in assay [8]. For the same compound, the EC50 result in assay [9] was “Not Active”; in [10], 1.21 µM; in assay [11], “Not Active”. The compound further gave an IC50 in assay [10] of 40.5 µM.
